Among the data in US20250171400A1, “AZA-HETEROCYCLYL CARBOXAMIDE AND RELATED COMPOUNDS AND THEIR USE IN TREATING MEDICAL CONDITIONS” (X-BIOTIX THERAPEUTICS, INC., priority 2021, published 2025) are MIC and IC50 values, retold here.

In brackets after ≈: the same amount, converted by molar mass. Where two headings read alike, the source gives them in different places.

Experiment [1] deals with wild-type P. aeruginosa PAO1. Briefly: broth microdilution minimum inhibition concentration assay. To be noted: Pseudomonas aeruginosa. The format is cell-based. The essentials:
(§1)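 CLSI broth microdilution with serial doubling dilutions in cation-adjusted Mueller-Hinton broth; inoculum adjusted to 1×10^6 CFU/mL, incubated 16-20 h at 37° C in air. Knockouts are isogenic clean deletions of acrA (E. coli BW25113) or MexA (PAO1); QC by piperacillin on ATCC reference strains.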
(In general: Dilution methods test growth across graded concentrations, often in twofold steps.)

Experiment [2] deals with E. coli BW25113 isogenic mutant deficient in acrA mediated efflux. Described as above. Format: cell-based. To be noted: Escherichia coli, BW25113, read-out: E. coli KO MIC. In outline: as §1
Experiment [3] has as its system P. aeruginosa PAO1 isogenic mutant deficient in MexA mediated efflux. The description is as above. Format: cell-based. To be noted: Pseudomonas aeruginosa, PAO1, read-out: P. aeruginosa KO MIC. In outline:
as §1

The test system of experiment [4] is wild-type E. coli BW25113. The experiment is described as above. The format is cell-based. To be noted: Escherichia coli; wild-type E. coli BW25113, 37° C. 16-20 h; read-out: E. coli WT MIC. The essentials: as §1
For experiment [5], the target named is E. coli LpxC (Escherichia coli (strain K12), UniProt P0A725). Briefly: in vitro substrate deacetylation assay for inhibition of LpxC (ADDA analysis). Format: biochemical. The note with it: 5 nM E. coli LpxC, 2.5 μM substrate, 1 hour at room temperature. In outline:
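E. coli LpxC (5 nM) was preincubated with compound for 10 min at room temperature in phosphate/sucrose/BSA buffer, pH 7.2. UDP-3-O-(R-3-hydroxymyristoyl)-GlcNAc (final 2.5 μM) was then added for 1 h. Substrate and product were measured by ADDA LC-MS/MS, with 1 μM CHIR-090 defining 100% inhibition and IC50 from a four-parameter fit.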

For experiment [6], the target named is P. aeruginosa LpxC (Pseudomonas aeruginosa (strain ATCC 15692 / DSM 22644 / CIP 104116 / JCM 14847 / LMG 12228 / 1C / PRS 101 / PAO1), UniProt P47205). Briefly: biochemical. The format is biochemical. To be noted: 5 nM P. aeruginosa LpxC, 2.5 μM substrate, 1 hour at room temperature. The essentials:
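In vitro deacetylation of substrate by P. aeruginosa LpxC in 384-well format. Substrate and product were captured on Hypercarb and quantified by negative-mode electrospray triple-quadrupole MS. IC50 was derived from the fraction of substrate converted at each compound concentration, calculated from peak areas.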

Setting [7] is: wild-type P. aeruginosa PAO1, 37° C. 16-20 h, read-out: P. aeruginosa WT MIC.
Setting [8] is: PAO1, read-out: P. aeruginosa WT MIC.

Chain of E. coli LpxC (P0A725 whole entry): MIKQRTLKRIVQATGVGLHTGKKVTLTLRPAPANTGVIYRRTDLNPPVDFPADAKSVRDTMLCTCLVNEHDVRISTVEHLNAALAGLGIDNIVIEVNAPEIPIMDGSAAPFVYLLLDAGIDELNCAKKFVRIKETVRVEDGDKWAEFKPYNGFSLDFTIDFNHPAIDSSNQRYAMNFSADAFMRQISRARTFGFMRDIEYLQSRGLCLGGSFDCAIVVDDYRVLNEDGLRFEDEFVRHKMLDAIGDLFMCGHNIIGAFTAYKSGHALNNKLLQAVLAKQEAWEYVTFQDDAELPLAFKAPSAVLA

Consider `O=C(N[C@@H]1C[C@H](C(=O)NCc2ccc(C#Cc3ccc(CN4CCOCC4)cc3)cc2)N(C(=O)OC2CC2)C1)[C@@H]1C[C@H](F)CN1` [Example 9AW], for which the MIC in experiment [1] (setting [7]) was more than 100 µM; in experiment [2], less than 20 µM; in experiment [3] it was less than 20 µM; in experiment [4] it was more than 100 µM. Besides, the IC50 is less than 500 nM in experiment [5] and less than 50 nM in experiment [6].

For the molecule `CNC(=O)N1C[C@H](NC(=O)[C@@H]2C[C@H](F)CN2)C[C@@H]1C(=O)NCc1ccc(C#Cc2ccc(CN3CCOCC3)cc2)cc1` [Example 9AR], the minimum inhibitory concentration (MIC) in experiment [1] (setting [7]) was more than 100 µM; in experiment [2], 20 to 100 µM (≈ 11.8 to 59.1 µg/mL); in experiment [3], less than 20 µM; in experiment [4], more than 100 µM. For the same molecule, the half-inhibitory concentration (IC50) in experiment [5] was less than 500 nM; in experiment [6], less than 50 nM.

On to `CC(C)C(=O)N1C[C@H](NC(=O)[C@@H]2CC(F)(F)CN2)C[C@@H]1C(=O)NCc1ccc(C#Cc2ccccc2)cc1` [Example 9C], for which the minimal inhibitory concentration (MIC) is more than 100 µM in experiment [1] (setting [8]), 20 to 100 µM (≈ 10.5 to 52.3 µg/mL) in experiment [2], more than 100 µM in experiment [3] and more than 100 µM in experiment [4]. Moreover, the IC50 in experiment [5] fell in the range of 500 to 2500 nM; in experiment [6], 100 to 1000 nM.

As to `CC(C)C(=O)N1C[C@H](NC(=O)[C@@H]2C[C@H](C#N)CN2)C[C@@H]1C(=O)NCc1ccc(C#CC#CC2CC2)cc1` [Example 9AE], the minimal inhibitory concentration (MIC) is more than 100 µM in experiment [1] (setting [7]), more than 100 µM in experiment [2], 20 to 100 µM (≈ 9.99 to 50 µg/mL) in experiment [3] and more than 100 µM in experiment [4]. Besides, the results for the IC50 in experiment [5] and in experiment [6] were 500 to 2500 nM and less than 50 nM, respectively.

`O=C(NC[C@H]1C[C@@H](NC(=O)[C@@H]2C[C@H](F)CN2)CN1C(=O)C1CC1)c1ccc(C#Cc2ccc(CN3CCOCC3)cc2)c(F)c1` [Example 8, (2S,4S)—N-((3R,5R)-1-(cyclopropanecarbonyl)-5-((3-fluoro-4-((4-(morpholinomethyl)phenyl)ethynyl)benzamido)methyl)pyrrolidin-3-yl)-4-fluoropyrrolidine-2-carboxamide]: the MIC is 20 to 100 µM (≈ 12.4 to 62 µg/mL) in experiment [1] (setting [7]), less than 20 µM in experiment [2], less than 20 µM in experiment [3] and less than 20 µM in experiment [4]. The half-maximal inhibitory concentration (IC50) in experiment [5] is less than 500 nM; in experiment [6], less than 50 nM.

With `CC(C)C(=O)N1C[C@H](NC(=O)[C@@H]2C[C@@H](F)CN2)C[C@@H]1C(=O)NCc1ccc(C#CC#CC2CC2)cc1` [Example 9I], the minimum inhibitory concentration (MIC) in experiment [1] (setting [8]), in experiment [2], in experiment [3] and in experiment [4] was more than 100 µM each time. In addition, the half-inhibitory concentration (IC50) in experiment [5] is 2500 to 10000 nM; in experiment [6], 100 to 1000 nM.

As to `O=C(N[C@@H]1C[C@H](C(=O)NCc2ccc(C#CC#CC3CC3)cc2)N(CCO)C1)[C@@H]1C[C@H](F)CN1` [Example 9AQ], the MIC in experiment [1] (setting [8]), in experiment [2], in experiment [3] and in experiment [4] was more than 100 µM throughout. Further, the results for the IC50 in experiment [5] and in experiment [6] were 2500 to 10000 nM and 100 to 1000 nM, respectively.

`COCCN1C[C@H](NC(=O)[C@@H]2C[C@H](F)CN2)C[C@@H]1C(=O)NCc1ccc(C#CC#CC2CC2)cc1` [Example 9AM, (2R,4R)—N-(4-(Cyclopropylbuta-1,3-diyn-1-yl)benzyl)-4-((2S,4S)-4-fluoropyrrolidine-2-carboxamido)-1-(2-methoxyethyl)pyrrolidine-2-carboxamide]: the MIC in experiment [1] (setting [8]), in experiment [2], in experiment [3] and in experiment [4] was more than 100 µM each time. The concentration for half-maximal inhibition (IC50) is 2500 to 10000 nM in experiment [5] and 100 to 1000 nM in experiment [6].

Turning to `NCCCC(=O)N1C[C@H](NC(=O)[C@@H]2C[C@H](F)CN2)C[C@@H]1C(=O)NCc1ccc(C#CC#CC2CC2)cc1` [Example 9O], the minimum inhibitory concentration (MIC) in experiment [1] (setting [8]), in experiment [2], in experiment [3] and in experiment [4] was more than 100 µM throughout. Also, the IC50 was in the range of 2500 to 10000 nM in experiment [5] and 50 to 100 nM in experiment [6].

Take `CC(C)C(=O)N1C[C@H](NC(=O)[C@@H]2C[C@@H](O)CN2)C[C@@H]1C(=O)NCc1ccc(C#Cc2ccc(CN3CCOCC3)cc2)cc1` [Example 9Y]: the minimum inhibitory concentration (MIC) in experiment [1] (setting [8]) was more than 100 µM; in experiment [2] it was 20 to 100 µM (≈ 12 to 60.2 µg/mL); in experiment [3], 20 to 100 µM (≈ 12 to 60.2 µg/mL); in experiment [4] it was more than 100 µM. The IC50 was less than 500 nM in experiment [5] and 50 to 100 nM in experiment [6].

Regarding `COCCN(C(=O)[C@@H]1C[C@H](F)CN1)[C@@H]1C[C@H](C(=O)NCc2ccc(C#Cc3ccc(CN4CCOCC4)cc3)cc2)N(C(=O)C2CC2)C1` [Example 9AV, (2R,4R)-1-(Cyclopropanecarbonyl)-4-((2S,4S)-4-fluoro-N-(2-methoxyethyl)pyrrolidine-2-carboxamido)-N-(4-((4-(morpholinomethyl)phenyl)ethynyl)benzyl)pyrrolidine-2-carboxamide], the MIC in experiment [1] (setting [7]), in experiment [2], in experiment [3] and in experiment [4] was more than 100 µM each time. Moreover, the figures for the IC50 in experiment [5] and in experiment [6] were more than 10000 nM and more than 1000 nM, respectively.

Regarding `O=C(N[C@@H]1C[C@H](C(=O)NCc2ccc(C#CC#CC3CC3)cc2)N(C(=O)C2CCNCC2)C1)[C@@H]1C[C@H](F)CN1` [Example 9P], the MIC in experiment [1] (setting [8]), in experiment [2], in experiment [3] and in experiment [4] was more than 100 µM each time. For the same molecule, the figures for the IC50 in experiment [5] and in experiment [6] were 2500 to 10000 nM and 100 to 1000 nM, respectively.

Consider `CC(C)C(=O)N1C[C@H](NC(=O)[C@@H]2C[C@H](F)CN2)C[C@@H]1C(=O)NCc1ccc(C#CC2CC2)cc1` [Example 9BG], for which the MIC in experiment [1] (setting [8]), in experiment [2], in experiment [3] and in experiment [4] was more than 100 µM in each case. Also, the IC50 in experiment [5] was more than 10000 nM; in experiment [6], 100 to 1000 nM.

Turning to `C[C@@H](CN)C(=O)N1C[C@H](NC(=O)[C@@H]2C[C@H](F)CN2)C[C@@H]1C(=O)NCc1ccc(C#CC#CC2CC2)cc1` [Example 9S], the minimal inhibitory concentration (MIC) in experiment [1] (setting [8]), in experiment [2], in experiment [3] and in experiment [4] was more than 100 µM throughout. The figures for the IC50 in experiment [5] and in experiment [6] were 500 to 2500 nM and 50 to 100 nM, respectively.

As for `CS(=O)(=O)CCN1C[C@H](NC(=O)[C@@H]2C[C@H](F)CN2)C[C@@H]1C(=O)NCc1ccc(C#CC#CC2CC2)cc1` [Example 9AP], the MIC in experiment [1] (setting [8]), in experiment [2], in experiment [3] and in experiment [4] was more than 100 µM each time. Further, the IC50 lay within 500 to 2500 nM in experiment [5] and 100 to 1000 nM in experiment [6].

By MIC is commonly meant the least concentration at which growth counts as inhibited. As usually defined, the IC50 is the concentration at which inhibition is half-maximal. A low value points to inhibition by little substance.
